In ChEMBL document CHEMBL1156112, “Discovery of 3-(1H-indol-3-yl)-4-[2-(4-methylpiperazin-1-yl)quinazolin-4-yl]pyrrole-2,5-dione (AEB071), a potent and selective inhibitor of protein kinase C isotypes” (J Med Chem, 2009):

Experiments:
[1] = molecular target: Protein kinase C beta type (Homo sapiens, UniProt P05771); assay: Inhibition of PKCbeta1 by SPA
[2] = molecular target: Protein kinase C theta type (Homo sapiens, UniProt Q04759); assay: Inhibition of PKCtheta by SPA
[3] = molecular target: Protein kinase C alpha type (Homo sapiens, UniProt P17252); assay: Inhibition of PKCalpha by SPA
[4] = molecular target: T1, Protein kinase C epsilon type (Homo sapiens, UniProt Q02156); assay: Inhibition of PKCepsilon by SPA
T1 sequence (Q02156 whole entry): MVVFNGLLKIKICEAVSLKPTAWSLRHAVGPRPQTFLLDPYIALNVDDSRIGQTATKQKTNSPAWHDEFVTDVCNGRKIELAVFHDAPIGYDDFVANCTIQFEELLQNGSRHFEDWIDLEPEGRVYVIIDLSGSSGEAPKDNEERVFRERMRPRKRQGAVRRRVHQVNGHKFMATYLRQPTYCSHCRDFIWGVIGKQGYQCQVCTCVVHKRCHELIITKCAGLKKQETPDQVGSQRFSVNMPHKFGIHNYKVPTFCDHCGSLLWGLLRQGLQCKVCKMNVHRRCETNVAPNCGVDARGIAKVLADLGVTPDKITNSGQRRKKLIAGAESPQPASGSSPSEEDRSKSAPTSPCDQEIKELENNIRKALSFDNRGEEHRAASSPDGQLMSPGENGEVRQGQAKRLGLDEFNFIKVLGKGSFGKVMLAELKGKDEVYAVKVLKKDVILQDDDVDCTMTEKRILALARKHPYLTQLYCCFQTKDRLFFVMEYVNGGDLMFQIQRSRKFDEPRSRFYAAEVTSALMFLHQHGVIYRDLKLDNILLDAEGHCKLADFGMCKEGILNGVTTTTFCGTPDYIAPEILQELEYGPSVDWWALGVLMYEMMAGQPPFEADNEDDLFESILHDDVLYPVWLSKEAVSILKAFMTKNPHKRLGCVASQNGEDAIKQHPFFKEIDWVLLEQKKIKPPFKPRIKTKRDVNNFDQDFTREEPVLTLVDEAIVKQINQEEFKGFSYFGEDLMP

[5] = molecular target: Protein kinase C eta type (Homo sapiens, UniProt P24723); assay: Inhibition of PKCeta by SPA
[6] = molecular target: Protein kinase C delta type (Homo sapiens, UniProt Q05655); assay: Inhibition of PKCdelta by SPA
Chain of Protein kinase C delta type (Q05655 whole entry): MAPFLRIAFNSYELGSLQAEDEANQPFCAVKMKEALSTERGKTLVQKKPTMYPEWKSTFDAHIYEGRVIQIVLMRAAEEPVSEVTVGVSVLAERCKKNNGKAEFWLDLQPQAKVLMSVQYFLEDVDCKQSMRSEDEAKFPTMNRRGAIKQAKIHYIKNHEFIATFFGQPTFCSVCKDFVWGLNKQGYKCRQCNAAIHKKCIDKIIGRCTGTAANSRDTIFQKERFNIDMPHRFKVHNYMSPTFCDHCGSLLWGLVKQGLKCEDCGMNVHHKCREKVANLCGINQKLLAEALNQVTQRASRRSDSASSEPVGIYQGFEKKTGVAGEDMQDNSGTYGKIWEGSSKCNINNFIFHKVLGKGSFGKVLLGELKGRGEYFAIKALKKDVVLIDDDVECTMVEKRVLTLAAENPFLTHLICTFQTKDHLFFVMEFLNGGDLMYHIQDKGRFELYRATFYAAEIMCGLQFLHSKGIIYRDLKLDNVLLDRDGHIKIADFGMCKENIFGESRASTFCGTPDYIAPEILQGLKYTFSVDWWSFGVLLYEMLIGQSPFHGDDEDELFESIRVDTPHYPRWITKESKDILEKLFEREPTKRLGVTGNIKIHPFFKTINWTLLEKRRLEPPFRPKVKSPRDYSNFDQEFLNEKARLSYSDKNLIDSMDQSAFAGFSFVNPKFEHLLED

Chain of Protein kinase C theta type (Q04759 whole entry): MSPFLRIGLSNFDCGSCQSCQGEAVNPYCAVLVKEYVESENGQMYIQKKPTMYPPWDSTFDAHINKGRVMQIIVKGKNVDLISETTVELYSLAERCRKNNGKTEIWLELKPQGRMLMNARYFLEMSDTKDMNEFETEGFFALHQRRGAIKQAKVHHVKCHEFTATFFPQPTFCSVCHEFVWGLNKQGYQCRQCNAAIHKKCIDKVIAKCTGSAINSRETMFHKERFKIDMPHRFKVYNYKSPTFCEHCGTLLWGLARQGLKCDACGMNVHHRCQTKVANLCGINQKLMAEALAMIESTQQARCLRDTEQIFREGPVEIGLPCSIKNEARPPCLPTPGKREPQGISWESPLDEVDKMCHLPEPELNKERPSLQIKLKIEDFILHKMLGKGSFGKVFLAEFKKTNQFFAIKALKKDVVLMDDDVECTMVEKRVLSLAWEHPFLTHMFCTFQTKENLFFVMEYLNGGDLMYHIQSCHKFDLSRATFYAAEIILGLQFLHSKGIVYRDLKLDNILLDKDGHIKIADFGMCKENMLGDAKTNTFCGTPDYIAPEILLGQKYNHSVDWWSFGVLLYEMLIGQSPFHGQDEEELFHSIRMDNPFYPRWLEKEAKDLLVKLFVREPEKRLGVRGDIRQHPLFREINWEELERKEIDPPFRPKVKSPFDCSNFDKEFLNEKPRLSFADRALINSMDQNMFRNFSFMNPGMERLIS
Chain of Protein kinase C beta type (P05771 whole entry): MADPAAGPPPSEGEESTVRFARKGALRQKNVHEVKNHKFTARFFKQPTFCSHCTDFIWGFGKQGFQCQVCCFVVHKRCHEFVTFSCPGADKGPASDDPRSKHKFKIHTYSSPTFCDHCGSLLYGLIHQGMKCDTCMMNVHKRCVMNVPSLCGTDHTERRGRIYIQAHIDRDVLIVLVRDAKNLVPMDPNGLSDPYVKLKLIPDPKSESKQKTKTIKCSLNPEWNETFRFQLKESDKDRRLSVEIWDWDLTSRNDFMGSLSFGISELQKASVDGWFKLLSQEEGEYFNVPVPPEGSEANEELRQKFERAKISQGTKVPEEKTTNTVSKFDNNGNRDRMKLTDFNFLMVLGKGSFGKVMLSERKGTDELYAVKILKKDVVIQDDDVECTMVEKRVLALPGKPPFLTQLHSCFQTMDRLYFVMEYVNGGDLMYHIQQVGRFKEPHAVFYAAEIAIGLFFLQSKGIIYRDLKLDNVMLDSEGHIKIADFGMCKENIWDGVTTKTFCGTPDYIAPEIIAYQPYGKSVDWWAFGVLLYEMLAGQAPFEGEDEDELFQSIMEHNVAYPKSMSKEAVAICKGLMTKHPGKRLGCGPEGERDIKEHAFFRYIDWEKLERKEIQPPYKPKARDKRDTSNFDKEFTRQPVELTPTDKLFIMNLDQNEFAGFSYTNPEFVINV
Chain of Protein kinase C eta type (P24723 whole entry): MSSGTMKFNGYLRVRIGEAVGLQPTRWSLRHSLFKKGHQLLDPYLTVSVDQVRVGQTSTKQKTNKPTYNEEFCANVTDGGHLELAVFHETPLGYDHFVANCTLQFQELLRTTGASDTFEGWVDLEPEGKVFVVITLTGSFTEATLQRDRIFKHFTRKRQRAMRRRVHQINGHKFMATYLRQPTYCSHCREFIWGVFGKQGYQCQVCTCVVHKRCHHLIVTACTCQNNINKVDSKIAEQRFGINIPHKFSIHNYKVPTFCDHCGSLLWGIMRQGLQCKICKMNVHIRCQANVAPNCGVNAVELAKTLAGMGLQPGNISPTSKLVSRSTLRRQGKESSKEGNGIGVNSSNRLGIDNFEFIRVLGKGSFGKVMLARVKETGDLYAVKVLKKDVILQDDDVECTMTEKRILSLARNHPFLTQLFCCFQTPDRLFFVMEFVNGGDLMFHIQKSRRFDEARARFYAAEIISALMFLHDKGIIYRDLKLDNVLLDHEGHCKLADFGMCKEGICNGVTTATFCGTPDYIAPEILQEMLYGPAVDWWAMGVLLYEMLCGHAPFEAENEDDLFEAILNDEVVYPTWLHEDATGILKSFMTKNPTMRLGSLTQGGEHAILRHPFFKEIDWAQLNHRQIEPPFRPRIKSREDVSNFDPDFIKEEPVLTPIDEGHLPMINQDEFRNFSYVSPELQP

In the case of `CN(C)CCCn1cc(C2=C(c3cccc4ccccc34)C(=O)NC2=O)c2ccccc21`, the IC50 [1] is reported as 60 nM, the IC50 [2] is reported as 165 nM and the IC50 [3] is reported as 98 nM. The IC50 [4] was greater than 315 nM, the IC50 [5] was 349 nM and the IC50 [6] was 207 nM.

`CN(C)CCCn1cc(C2=C(c3n[nH]c4ccccc34)C(=O)NC2=O)c2ccccc21` was tested, and the IC50 [1] was greater than 315 nM, the IC50 [2] was greater than 315 nM and the IC50 [3] was greater than 315 nM. The IC50 [4] was greater than 315 nM, the IC50 [5] was greater than 315 nM and the IC50 [6] was greater than 315 nM.
